Results from paper PMC9103942, “A Tumor-Homing Peptide Platform Enhances Drug Solubility, Improves Blood–Brain Barrier Permeability and Targets Glioblastoma” (Cancers, 2022).

Tests used:
[1] = Serum stability, human serum; format: in vitro ADME; conditions: 25% human serum; for half-life at 70 µM: human, LC-MS, normalized to EIC at t = 0
[2] = set-up: method as in PMID 33997269; conditions: cited from earlier work
[3] = Compound solubility in saline vs pure DMSO (LC-MS of supernatant); format: physicochemical; conditions: room temperature 5 min, centrifuged, LC-MS EIC
Experimental: Dried powder of each compound was first resuspended in pure DMSO to form a 10 mm stock. Each stock was then diluted in saline (0.9% NaCl) to form an aqueous solution of 100 µm (final DMSO 1% (v/v)) or 1.3 mM (final DMSO 10% (v/v)) of each compound. The samples were incubated at room temperature for 5 min, then centrifuged at 10,000 rcf for 10 min to pellet any precipitates. 5 µL of supernatant was diluted into LC-MS vials containing 100 µL of 50:50 water:acetonitrile with 0.1% TFA additive and analyzed by LC-MS. The presence of soluble compound in each supernatant was determined by quantifying the ion count in the extracted ion chromatogram (EIC) using the MassHunter software. Solubility was measured by comparing the total EIC of the sample diluted in saline vs. in pure DMSO. Each sample was measured in duplicates.
To test the solubility of each compound in aqueous solution, a 10 mm stock of each compound in pure DMSO was diluted in saline solution (0.9% sodium chloride in water) to a final concentration of either 100 µm or 1.3 mm. The samples were incubated at room temperature for 5 min and centrifuged to remove any precipitate. The supernatant was analyzed by liquid chromatography–mass spectrometry (LC-MS). To quantify solubility, the extracted ion count from samples diluted in saline was normalized to samples diluted in pure DMSO.

[4] = target: T1, recombinant dg-Bcan protein (Homo sapiens, UniProt Q96GW7); test: Octet binding kinetic analysis (steady state) to recombinant dg-Bcan; conditions: one site specific binding fit, Octet RED
T1 construct: purchased R&D Systems 4009-BC-050
T1 sequence (Q96GW7 23-911): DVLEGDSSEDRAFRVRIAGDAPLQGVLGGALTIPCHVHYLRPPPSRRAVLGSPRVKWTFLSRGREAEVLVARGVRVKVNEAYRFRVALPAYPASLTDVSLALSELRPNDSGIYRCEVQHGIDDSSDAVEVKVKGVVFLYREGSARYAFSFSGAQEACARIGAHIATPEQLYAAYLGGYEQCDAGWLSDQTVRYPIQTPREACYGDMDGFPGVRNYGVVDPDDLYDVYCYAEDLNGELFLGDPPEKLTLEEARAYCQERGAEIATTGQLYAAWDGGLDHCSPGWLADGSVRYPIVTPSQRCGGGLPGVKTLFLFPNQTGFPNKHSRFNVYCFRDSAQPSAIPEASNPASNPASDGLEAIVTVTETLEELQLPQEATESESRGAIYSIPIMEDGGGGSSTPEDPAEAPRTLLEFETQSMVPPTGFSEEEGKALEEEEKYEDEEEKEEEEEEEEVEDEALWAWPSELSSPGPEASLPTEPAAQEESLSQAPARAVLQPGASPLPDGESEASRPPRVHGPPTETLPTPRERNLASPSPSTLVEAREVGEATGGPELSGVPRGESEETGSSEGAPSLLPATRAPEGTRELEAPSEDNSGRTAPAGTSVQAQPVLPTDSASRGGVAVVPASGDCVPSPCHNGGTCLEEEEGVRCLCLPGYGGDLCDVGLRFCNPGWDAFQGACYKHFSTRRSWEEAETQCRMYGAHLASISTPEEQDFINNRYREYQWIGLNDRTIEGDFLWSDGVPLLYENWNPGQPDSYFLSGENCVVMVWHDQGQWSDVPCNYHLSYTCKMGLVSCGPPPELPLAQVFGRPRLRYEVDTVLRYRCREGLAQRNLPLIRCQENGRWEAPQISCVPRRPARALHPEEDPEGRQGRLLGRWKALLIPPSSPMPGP
Experimental: Figure 3 Cytotoxicity of BTP-7-CPT. (a) Western blot showing expression of dg-Bcan in patient-derived GBM-X6 cells, as well as in Bcan-overexpressing HEK cells (HEK-Bcan). (b) Binding kinetics analysis (steady-state) of BTP-7-CPT (red) and unmodified CPT (blue) to recombinant dg-Bcan protein using the ForteBio Octet system. Rmax (maximal response in response unit) and KD (dissociation constant) were calculated using a non-linear regression (one site specific binding) fit using the Graphpad Prism software. (c) Luminescent cell viability (CellTiter-Glo) of GBM-X6 cells treated with BTP-7-CPT (nwells = 3) for 72 h. (d) Luminescent cell viability (CellTiter-Glo) of GS401 recurrent GBM cells treated with BTP-7-CPT (nwells = 3) for 72 h. All IC50 values were measured through the non-linear ‘log(inhibitor) vs. response—variable slope (four parameters)’ fit. […] Statistical significance was calculated using a two-way ANOVA, Sidak’s multiple comparisons test (* p < 0.05, *** p < 0.001, **** p < 0.0001). […]
Infrared spectroscopy (IR). Infrared spectra (IR) were recorded on a Bruker Alpha II FTIR. […]
Then, biosensors were exposed to the analyte (peptide) in working buffer (ranging between 0– 10 µM BTP) for 300 s during the ‘association’ step. […] Binding affinity of each peptide was assessed through steady state analysis, where the response unit was plotted over peptide concentration. […]

[5] = Ex vivo serum stability assay, mouse serum; format: in vitro ADME; conditions: 25% mouse serum, over 12 h
Experimental: Mouse serum was obtained from 8–10-week-old athymic female mice. Mice were euthanized by CO2 asphyxiation with secondary decapitation to ensure death. An incision was made from the neck to the abdomen and the thorax was cut to expose the heart. An amount of 100 µL of heparin was then injected directly into the right atrium to prevent the blood from clotting. A cardiac puncture was performed by piercing the left ventricle with a 21G needle to remove 400–1000 µL of blood. Blood from five mice was collected and combined in a 10-mL centrifuge tube and centrifuged for 5 min at 500 rcf at 4 °C. The top layer containing the serum (opaque) was removed and stored at −20 °C.
To test for serum stability, a 10 mM stock of BTP-7-CPT and Scr-7-CPT was prepared in DMSO. Each compound (1.4 µL) was transferred into a microcentrifuge tube containing 200 µL of PBS with 25% mouse serum, or in PBS alone, and incubated at 37 °C (final concentration 70 μm). […] Samples containing the peptide were eluted with 10 µL of 70% acetonitrile in water containing 0.1% TFA into an LC-MS vial containing 20 µL of water with 0.1% TFA additive and analyzed via LC-MS. The amount of intact compound was determined through quantifying the ion count in the extracted ion chromatogram (EIC) using the MassHunter software. […]

Structure (SMILES) | half-life at 70 µM [1] | remaining at 24 h ([1]; after 24 h of incubation, read-out: peptide still intact) | stability in mouse serum [2] | soluble compound present in saline relative to in pure DMSO ([3]; 1.3 mm in saline (0.9% NaCl), 10% DMSO) | soluble compound present in saline relative to in pure DMSO ([3]; 100 µm in saline (0.9% NaCl), 1% DMSO) | KD (dissociation constant) [4] | stability in mouse serum (detectable compound vs PBS) [5]
CC(C)[C@@H](NC(=O)[C@@H](Cc1c[nH]cn1)NC(=O)CNC(=O)[C@@H](Cc1c[nH]c2ccccc12)NC(=O)[C@@H](CCCCN)NC(=O)[C@H](N)[C@H](C)O)C(=O)N[C@H](CC(N)=O)C(=O)N[C@H](CCCCN)C(=O)NCCCCCC(=O)N[C@@H](CS)C(N)=O [BTP-7-X-Cys] | 0.16 h | – | – | – | – | – | –
CC(C)[C@@H](NC(=O)[C@@H](Cc1c[nH]cn1)NC(=O)CNC(=O)[C@@H](Cc1c[nH]c2ccccc12)NC(=O)[C@@H](CCCCN)NC(=O)[C@H](N)[C@H](C)O)C(=O)N[C@H](CC(N)=O)C(=O)N[C@H](CCCCN)C(=O)NCCCCCC(N)=O [BTP-7-X] | 4.4 h | ~40% | stable in mouse serum | – | – | – | –
CC[C@@]1(O)C(=O)OCc2c1cc1n(c2=O)Cc2cc3ccccc3nc2-1 [CPT, camptothecin] | – | – | – | practically undetectable | 30% | did not exhibit any affinity | no decline in detectable compound over 12 h
